# Assays:
# [1] = target: 5-hydroxytryptamine receptor 2B (Homo sapiens, UniProt P41595); assay: Displacement of [3H]LSD from human recombinant 5-HT2B receptor expressed in HEK cells after 90 mins by scintillation counting analysis; format: cell-based, HEK293
# [2] = target: 5-hydroxytryptamine receptor 2A (Homo sapiens, UniProt P28223); assay: Displacement of [3H]Ketanserin from human recombinant 5-HT2A receptor expressed in HEK cells after 90 mins by scintillation counting analysis; format: cell-based, HEK293
# [3] = target: T1, 5-hydroxytryptamine receptor 3A (Mus musculus, UniProt P23979); assay: Antagonist activity at mouse 5-HT3A receptor expressed in Xenopus oocytes assessed as reduction of 5HT-induced current by two-electrode voltage clamp technique; format: cell-based, Oocyte
# T1 sequence (P23979 whole entry): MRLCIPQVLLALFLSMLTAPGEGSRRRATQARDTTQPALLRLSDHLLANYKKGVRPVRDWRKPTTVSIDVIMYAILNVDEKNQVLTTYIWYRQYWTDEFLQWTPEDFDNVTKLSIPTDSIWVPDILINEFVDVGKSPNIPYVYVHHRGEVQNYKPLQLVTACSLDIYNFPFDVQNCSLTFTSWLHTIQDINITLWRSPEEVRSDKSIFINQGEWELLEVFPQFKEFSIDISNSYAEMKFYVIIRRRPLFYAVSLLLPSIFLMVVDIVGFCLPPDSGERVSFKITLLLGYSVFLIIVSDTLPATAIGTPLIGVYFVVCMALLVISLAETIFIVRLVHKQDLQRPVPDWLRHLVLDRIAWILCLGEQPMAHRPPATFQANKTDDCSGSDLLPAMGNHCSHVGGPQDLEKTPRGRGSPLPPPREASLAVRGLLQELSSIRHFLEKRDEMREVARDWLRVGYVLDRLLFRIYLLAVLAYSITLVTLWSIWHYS
# [4] = target: 5-hydroxytryptamine receptor 1D (Homo sapiens, UniProt P28221); assay: Displacement of [3H]5-CT from human recombinant 5-HT1D receptor expressed in HEK cells after 90 mins by scintillation counting analysis; format: cell-based, HEK293
# Mus musculus [5] = assay: Toxicity in ICR mouse assessed as total movement distance at 1 to 3 mg/kg, ip after 15 to 45 mins by locomotor activity assay relative to vehicle-treated control; format: organism-based; design: route intraperitoneal; conditions: in vivo
# Mus musculus [6] = assay: Toxicity in ICR mouse assessed as total movement time at 1 to 3 mg/kg, ip after 15 to 45 mins by locomotor activity assay relative to vehicle-treated control; format: organism-based; design: route intraperitoneal; conditions: in vivo
# Mus musculus [7] = assay: Antidepressant activity in ip dosed ICR mouse assessed as immobility time by tail suspension test; format: functional
# [8] = Lipophilicity, log P of the compound by HPLC analysis; format: physicochemical
# [9] = target: Sodium-dependent serotonin transporter (Homo sapiens, UniProt P31645); assay: Displacement of [3H]cfitalopramfrom human recombinant serotonin transporter expressed in HEK cells after 90 mins by scintillation counting analysis; format: cell-based, HEK293
# [10] = target: Muscarinic acetylcholine receptor M4 (Homo sapiens, UniProt P08173); assay: Binding affinity to human recombinant muscarinic M4 receptor expressed in CHO cells after 90 mins by radioligand displacement assay; format: cell-based
# [11] = target: Muscarinic acetylcholine receptor M2 (Homo sapiens, UniProt P08172); assay: Binding affinity to human recombinant muscarinic M2 receptor expressed in CHO cells after 90 mins by radioligand displacement assay; format: cell-based
# Histamine H1 receptor = Histamine H1 receptor (Homo sapiens, UniProt P35367); assay: Displacement of [3H]Pyrilamine from human recombinant histamine H1 receptor expressed in HEK cells after 90 mins by scintillation counting analysis; format: cell-based, HEK293
# [12] = Displacement of [3H]Muscimol from GABAA in rat brain after 90 mins by scintillation counting analysis; format: tissue-based
# D(3) dopamine receptor = D(3) dopamine receptor (Homo sapiens, UniProt P35462); assay: Displacement of [3H]N-methylspiperone from dopamine D3 receptor (unknown origin) after 90 mins by scintillation counting analysis
# [13] = target: Alpha-1D adrenergic receptor (Homo sapiens, UniProt P25100); assay: Displacement of [3H]Prazosin from human recombinant alpha1D-adrenoceptor after 90 mins by scintillation counting analysis
# [14] = target: Beta-1 adrenergic receptor (Homo sapiens, UniProt P08588); assay: Binding affinity to human recombinant beta1-adrenoceptor expressed in CHO cells after 90 mins by radioligand displacement assay; format: cell-based
# [15] = target: Alpha-1B adrenergic receptor (Homo sapiens, UniProt P35368); assay: Displacement of [3H]Prazosin from human recombinant alpha1B-adrenoceptor expressed in HEK cells after 90 mins by scintillation counting analysis; format: cell-based, HEK293
# [16] = target: Alpha-1A adrenergic receptor (Homo sapiens, UniProt P35348); assay: Displacement of [3H]Prazosin from human recombinant alpha1A-adrenoceptor after 90 mins by scintillation counting analysis
# [17] = target: Neuronal acetylcholine receptor; alpha4/beta2 (Homo sapiens, UniProt P17787+P43681); assay: Displacement of [3H]-epibatidine from human alpha4beta2 nAChR transfected in HEK293 cells by scintillation counting analysis; format: cell-based
# [18] = target: Nicotinic acetylcholine receptor alpha2/beta4 (Homo sapiens, UniProt P02708+P30926); assay: Displacement of [3H]-epibatidine from human alpha2beta4 nAChR transfected in HEK293 cells by scintillation counting analysis; format: cell-based
# [19] = target: Nicotinic acetylcholine receptor alpha2/beta2 (Homo sapiens, UniProt P02708+P17787); assay: Displacement of [3H]-epibatidine from human alpha2beta2 nAChR transfected in HEK293 cells by scintillation counting analysis; format: cell-based
# [20] = target: 5-hydroxytryptamine receptor 6 (Homo sapiens, UniProt P50406); assay: Displacement of [3H]LSD from human recombinant 5-HT6 receptor expressed in HEK cells after 90 mins by scintillation counting analysis; format: cell-based, HEK293
# [21] = target: 5-hydroxytryptamine receptor 1B (Homo sapiens, UniProt P28222); assay: Displacement of [3H]5-CT from human recombinant 5-HT1B receptor expressed in HEK cells after 90 mins by scintillation counting analysis; format: cell-based, HEK293
# [22] = Displacement of [3H]DTG from sigma2 receptor (unknown origin) expressed in rat PC12 cells after 90 mins by scintillation counting analysis; format: cell-based, Homo sapiens; conditions: pc-12
# [23] = target: 5-hydroxytryptamine receptor 1A (Homo sapiens, UniProt P08908); assay: Displacement of [3H]Way100635 from human recombinant 5-HT1A receptor expressed in CHO cells after 90 mins by scintillation counting analysis; format: cell-based
# [24] = target: Sigma non-opioid intracellular receptor 1 (Cavia porcellus, UniProt Q60492); assay: Displacement of [3H]Pentazocine from guinea pig sigma1 receptor after 90 mins by scintillation counting analysis
# D(4) dopamine receptor = D(4) dopamine receptor (Homo sapiens, UniProt P21917); assay: Displacement of [3H]N-methylspiperone from dopamine D4 receptor (unknown origin) after 90 mins by scintillation counting analysis
# [25] = target: Alpha-2C adrenergic receptor (Homo sapiens, UniProt P18825); assay: Displacement of [3H]Rauwolscine from human recombinant alpha2C-adrenoceptor expressed in MDCK cells after 90 mins by scintillation counting analysis; format: cell-based
# [26] = target: Alpha-2B adrenergic receptor (Homo sapiens, UniProt P18089); assay: Displacement of [3H]Rauwolscine from human recombinant alpha2B-adrenoceptor expressed in HEK cells after 90 mins by scintillation counting analysis; format: cell-based, HEK293
# [27] = target: Alpha-2A adrenergic receptor (Homo sapiens, UniProt P08913); assay: Displacement of [3H]Rauwolscine from human recombinant alpha2A-adrenoceptor expressed in MDCK cells after 90 mins by scintillation counting analysis; format: cell-based
# Alpha-2A adrenergic receptor, sequence (P08913 whole entry): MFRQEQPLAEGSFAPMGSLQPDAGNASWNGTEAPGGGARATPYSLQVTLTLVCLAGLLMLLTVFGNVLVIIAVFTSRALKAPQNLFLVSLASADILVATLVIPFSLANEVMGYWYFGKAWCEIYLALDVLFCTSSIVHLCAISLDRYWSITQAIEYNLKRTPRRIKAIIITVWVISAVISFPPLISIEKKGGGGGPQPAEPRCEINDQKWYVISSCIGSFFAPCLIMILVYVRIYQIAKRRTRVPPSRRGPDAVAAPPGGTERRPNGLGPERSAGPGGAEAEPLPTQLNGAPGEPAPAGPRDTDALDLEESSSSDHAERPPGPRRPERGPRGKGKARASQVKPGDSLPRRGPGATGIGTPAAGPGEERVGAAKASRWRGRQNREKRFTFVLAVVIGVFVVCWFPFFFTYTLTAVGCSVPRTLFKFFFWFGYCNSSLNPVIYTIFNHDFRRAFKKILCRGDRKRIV
# D(4) dopamine receptor, sequence (P21917 whole entry): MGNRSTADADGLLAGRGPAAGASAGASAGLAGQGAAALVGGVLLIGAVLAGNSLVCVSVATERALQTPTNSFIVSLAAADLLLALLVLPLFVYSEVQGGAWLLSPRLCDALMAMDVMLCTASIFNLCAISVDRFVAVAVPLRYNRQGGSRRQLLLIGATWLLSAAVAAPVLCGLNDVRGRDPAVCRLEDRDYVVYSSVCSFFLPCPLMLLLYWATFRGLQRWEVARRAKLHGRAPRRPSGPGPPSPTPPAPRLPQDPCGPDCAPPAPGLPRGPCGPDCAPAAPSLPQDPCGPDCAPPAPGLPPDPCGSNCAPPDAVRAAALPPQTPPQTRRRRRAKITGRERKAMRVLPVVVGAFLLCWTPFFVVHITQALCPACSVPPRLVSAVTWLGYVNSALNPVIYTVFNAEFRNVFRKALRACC
# Sodium-dependent serotonin transporter, sequence (P31645 whole entry): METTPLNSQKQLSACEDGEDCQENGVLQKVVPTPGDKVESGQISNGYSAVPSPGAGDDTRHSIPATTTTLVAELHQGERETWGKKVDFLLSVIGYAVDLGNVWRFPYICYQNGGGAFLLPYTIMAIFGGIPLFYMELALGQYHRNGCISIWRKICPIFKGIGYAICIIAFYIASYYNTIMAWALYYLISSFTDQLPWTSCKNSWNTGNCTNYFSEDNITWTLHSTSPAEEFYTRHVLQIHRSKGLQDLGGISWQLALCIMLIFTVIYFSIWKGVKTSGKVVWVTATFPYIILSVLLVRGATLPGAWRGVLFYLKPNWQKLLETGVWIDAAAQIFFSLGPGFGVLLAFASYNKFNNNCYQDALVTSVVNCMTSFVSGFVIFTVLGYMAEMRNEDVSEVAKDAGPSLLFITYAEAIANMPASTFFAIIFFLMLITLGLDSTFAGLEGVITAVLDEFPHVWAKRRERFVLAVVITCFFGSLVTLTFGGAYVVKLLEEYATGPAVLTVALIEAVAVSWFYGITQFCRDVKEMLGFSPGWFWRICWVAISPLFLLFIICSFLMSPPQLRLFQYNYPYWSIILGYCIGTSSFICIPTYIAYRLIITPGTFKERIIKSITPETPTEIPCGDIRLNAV
# Histamine H1 receptor, sequence (P35367 whole entry): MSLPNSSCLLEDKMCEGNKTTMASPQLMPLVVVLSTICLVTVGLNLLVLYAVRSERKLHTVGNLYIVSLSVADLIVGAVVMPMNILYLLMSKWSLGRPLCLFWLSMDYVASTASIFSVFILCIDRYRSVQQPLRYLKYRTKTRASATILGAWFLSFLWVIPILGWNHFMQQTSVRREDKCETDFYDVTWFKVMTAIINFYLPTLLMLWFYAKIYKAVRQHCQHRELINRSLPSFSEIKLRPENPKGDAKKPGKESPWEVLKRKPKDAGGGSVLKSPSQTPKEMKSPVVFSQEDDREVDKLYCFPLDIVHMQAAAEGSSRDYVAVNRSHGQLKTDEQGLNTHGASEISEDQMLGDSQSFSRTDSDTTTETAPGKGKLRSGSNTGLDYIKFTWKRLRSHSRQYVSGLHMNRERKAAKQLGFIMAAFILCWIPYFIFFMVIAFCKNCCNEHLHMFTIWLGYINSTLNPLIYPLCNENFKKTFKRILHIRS
# Nicotinic acetylcholine receptor alpha2/beta2, sequence (P02708 whole entry): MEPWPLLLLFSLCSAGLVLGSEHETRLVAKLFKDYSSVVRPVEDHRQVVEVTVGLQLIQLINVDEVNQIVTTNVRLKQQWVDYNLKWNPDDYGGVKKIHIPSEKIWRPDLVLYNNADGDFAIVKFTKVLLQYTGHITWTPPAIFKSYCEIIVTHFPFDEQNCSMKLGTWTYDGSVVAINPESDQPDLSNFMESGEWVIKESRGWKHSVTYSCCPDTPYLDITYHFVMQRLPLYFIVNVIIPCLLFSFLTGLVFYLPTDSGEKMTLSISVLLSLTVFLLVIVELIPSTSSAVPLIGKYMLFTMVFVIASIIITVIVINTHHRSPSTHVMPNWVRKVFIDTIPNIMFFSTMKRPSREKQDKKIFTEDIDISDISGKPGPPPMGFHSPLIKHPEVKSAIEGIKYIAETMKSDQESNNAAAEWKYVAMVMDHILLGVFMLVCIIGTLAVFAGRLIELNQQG
# Nicotinic acetylcholine receptor alpha2/beta2, sequence (P17787 whole entry): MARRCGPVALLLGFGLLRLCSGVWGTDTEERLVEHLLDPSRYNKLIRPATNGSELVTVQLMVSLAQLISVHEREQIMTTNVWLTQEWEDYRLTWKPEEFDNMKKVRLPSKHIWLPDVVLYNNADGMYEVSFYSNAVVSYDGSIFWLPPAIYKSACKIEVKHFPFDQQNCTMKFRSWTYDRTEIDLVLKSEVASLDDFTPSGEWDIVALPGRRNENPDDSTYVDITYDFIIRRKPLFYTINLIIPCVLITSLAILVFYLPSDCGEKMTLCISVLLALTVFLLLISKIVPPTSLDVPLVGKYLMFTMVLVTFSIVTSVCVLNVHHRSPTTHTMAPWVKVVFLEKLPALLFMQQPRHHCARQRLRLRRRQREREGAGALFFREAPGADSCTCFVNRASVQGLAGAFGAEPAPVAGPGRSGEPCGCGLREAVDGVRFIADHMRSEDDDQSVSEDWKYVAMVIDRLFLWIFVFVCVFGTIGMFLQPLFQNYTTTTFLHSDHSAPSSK
# Nicotinic acetylcholine receptor alpha2/beta4, sequence (P02708 whole entry): as the sequence (P02708 whole entry) above
# Nicotinic acetylcholine receptor alpha2/beta4, sequence (P30926 whole entry): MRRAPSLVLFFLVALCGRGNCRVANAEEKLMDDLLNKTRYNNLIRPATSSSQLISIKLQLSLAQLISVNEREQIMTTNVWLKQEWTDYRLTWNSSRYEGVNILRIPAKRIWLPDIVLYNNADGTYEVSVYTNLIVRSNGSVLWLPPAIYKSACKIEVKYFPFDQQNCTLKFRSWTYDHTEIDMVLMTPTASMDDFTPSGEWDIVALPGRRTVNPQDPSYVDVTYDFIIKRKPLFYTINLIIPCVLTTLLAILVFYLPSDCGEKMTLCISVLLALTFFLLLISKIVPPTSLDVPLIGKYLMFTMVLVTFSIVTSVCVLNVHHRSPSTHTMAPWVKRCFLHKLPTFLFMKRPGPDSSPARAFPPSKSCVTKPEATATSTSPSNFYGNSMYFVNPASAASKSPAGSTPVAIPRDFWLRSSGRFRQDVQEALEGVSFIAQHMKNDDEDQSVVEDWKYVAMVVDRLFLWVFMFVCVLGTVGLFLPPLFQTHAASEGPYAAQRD
# Beta-1 adrenergic receptor, sequence (P08588 whole entry): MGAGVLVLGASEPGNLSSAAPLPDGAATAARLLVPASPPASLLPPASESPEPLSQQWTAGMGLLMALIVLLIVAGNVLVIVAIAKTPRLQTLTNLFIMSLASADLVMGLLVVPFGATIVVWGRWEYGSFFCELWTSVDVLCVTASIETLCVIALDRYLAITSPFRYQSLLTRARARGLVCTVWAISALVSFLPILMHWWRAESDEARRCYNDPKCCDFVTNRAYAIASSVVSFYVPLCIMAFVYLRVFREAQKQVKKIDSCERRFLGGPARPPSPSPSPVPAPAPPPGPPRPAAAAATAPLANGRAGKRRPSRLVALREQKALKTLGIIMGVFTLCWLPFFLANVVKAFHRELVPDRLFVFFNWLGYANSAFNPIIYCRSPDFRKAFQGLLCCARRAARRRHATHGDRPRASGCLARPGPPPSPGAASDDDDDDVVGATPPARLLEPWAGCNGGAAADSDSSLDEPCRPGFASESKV
# 5-hydroxytryptamine receptor 6, sequence (P50406 whole entry): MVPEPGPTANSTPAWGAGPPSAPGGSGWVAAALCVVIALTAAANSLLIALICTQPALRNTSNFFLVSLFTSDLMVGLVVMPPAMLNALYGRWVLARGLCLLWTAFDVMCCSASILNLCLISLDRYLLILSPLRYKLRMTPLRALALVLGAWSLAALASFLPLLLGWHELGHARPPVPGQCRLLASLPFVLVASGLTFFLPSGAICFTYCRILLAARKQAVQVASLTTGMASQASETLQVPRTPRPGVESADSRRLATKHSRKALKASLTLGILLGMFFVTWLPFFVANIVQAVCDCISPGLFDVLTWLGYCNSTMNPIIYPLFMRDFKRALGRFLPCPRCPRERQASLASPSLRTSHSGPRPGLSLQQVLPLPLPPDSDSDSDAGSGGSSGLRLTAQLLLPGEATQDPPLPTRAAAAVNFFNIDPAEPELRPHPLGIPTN
# Alpha-2C adrenergic receptor, sequence (P18825 whole entry): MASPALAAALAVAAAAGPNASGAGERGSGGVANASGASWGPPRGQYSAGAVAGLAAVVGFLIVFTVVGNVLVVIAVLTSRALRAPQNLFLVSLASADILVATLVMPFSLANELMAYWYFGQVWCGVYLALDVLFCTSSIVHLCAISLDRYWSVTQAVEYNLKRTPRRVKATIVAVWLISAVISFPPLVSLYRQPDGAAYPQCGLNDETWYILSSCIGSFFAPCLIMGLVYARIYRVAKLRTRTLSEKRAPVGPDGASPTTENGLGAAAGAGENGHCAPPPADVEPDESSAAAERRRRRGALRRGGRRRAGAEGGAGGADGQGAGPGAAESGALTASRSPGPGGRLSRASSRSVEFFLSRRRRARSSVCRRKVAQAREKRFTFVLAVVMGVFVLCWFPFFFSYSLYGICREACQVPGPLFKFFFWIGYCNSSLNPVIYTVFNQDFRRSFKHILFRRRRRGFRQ
smiles,measurement,setting,value
Cl.NC1=Nc2ccc(Cl)cc2CN1,Ki,[1],0.565 µM
same,Ki,[2],1.32 µM
same,IC50,[3],0.26 µM
same,Ki,[4],0.684 µM
same,Activity,Mus musculus [5],Non-toxic
same,Activity,Mus musculus [6],Non-toxic
same,ED50,Mus musculus [7],0.23 mg/kg
same,logP,[8],1.86
same,Ki,[9],> 10 µM
same,Ki,[10],> 10 µM
same,Ki,[11],> 10 µM
same,Ki,Histamine H1 receptor,> 10 µM
same,Ki,[12],> 10 µM
same,Ki,D(3) dopamine receptor,> 10 µM
same,Ki,[13],> 10 µM
same,Ki,[14],> 10 µM
same,Ki,[15],> 10 µM
same,Ki,[16],> 10 µM
same,Ki,[17],> 10 µM
same,Ki,[18],> 10 µM
same,Ki,[19],> 10 µM
same,Ki,[20],> 10 µM
same,Ki,[21],> 10 µM
same,Ki,[22],2.65 µM
same,pKi,[22],5.6
same,Ki,[23],> 10 µM
same,Ki,[24],6.15 µM
same,Ki,D(4) dopamine receptor; read-out: Ki,5.8 µM
same,Ki,D(4) dopamine receptor; read-out: pKi (converted),5.13 µM
same,Ki,[25],0.84 µM
same,Ki,[26],0.243 µM
same,Ki,[27],0.283 µM

# — ChEMBL document CHEMBL2434905, “2-Amino-6-chloro-3,4-dihydroquinazoline: A novel 5-HT3 receptor antagonist with antidepressant character” (Bioorg Med Chem Lett, 2013)
